The conditions of data set [1]: 14-membered ring, 16.0 h.
Data set [2] deals with human TYK2 (JH2domain-pseudokinase) (Homo sapiens (Human), UniProt P29597). Put plainly: TYK2 JH2 domain binding assay (KINOMEscan). Here is the method:
Binding constants for the compounds described herein against the JH2 domain were determined by the following protocol for a KINOMEscan® assay (DiscoveRx). A fusion protein of a partial length construct of human TYK2 (JH2domain-pseudokinase) (amino acids G556 to D888 based on reference sequence NP_003322.3) and the DNA binding domain of NFkB was expressed in transiently transfected HEK293 cells. From these HEK 293 cells, extracts were prepared in M-PER extraction buffer (Pierce) in the presence of Protease Inhibitor Cocktail Complete (Roche) and Phosphatase Inhibitor Cocktail Set II (Merck) per manufacturers' instructions. The TYK2 (JH2domain-pseudokinase) fusion protein was labeled with a chimeric double-stranded DNA tag containing the NFkB binding site fused to an amplicon for qPCR readout, which was added directly to the expression extract (the final concentration of DNA-tag in the binding reaction is 0.1 nM).
Streptavidin-coated magnetic beads (Dynal M280) were treated with a biotinylated small molecule ligand for 30 minutes at room temperature to generate affinity resins the binding assays. The liganded beads were blocked with excess biotin and washed with blocking buffer (SeaBlock (Pierce), 1% BSA, 0.05% Tween 20, 1 mM DTT) to remove unbound ligand and to reduce nonspecific binding.
The binding reaction was assembled by combining 16 μl of DNA-tagged kinase extract, 3.8 μl liganded affinity beads, and 0.18 μl test compound (PBS/0.05% Tween 20/10 mM DTT/0.1% BSA/2 μg/ml sonicated salmon sperm DNA)]. Extracts were used directly in binding assays without any enzyme purification steps at a ≥10,000-fold overall stock dilution (final DNA-tagged enzyme concentration <0.1 nM). Extracts were loaded with DNA-tag and diluted into the binding reaction in a two-step process. First extracts were diluted 1:100 in 1×binding buffer (PBS/0.05% Tween 20/10 mM DTT/0.1% BSA/2 […] sonicated salmon sperm DNA) containing 10 nM DNA-tag. This dilution was allowed to equilibrate at room temperature for 15 minutes and then subsequently diluted 1:100 in 1× binding buffer. Test compounds were prepared as 111× stocks in 100% DMSO. Kds were determined using an 11-point 3-fold compound dilution series with three DMSO control points. All compounds for Kd measurements were distributed by acoustic transfer (non-contact dispensing) in 100% DMSO. The compounds were then diluted directly into the assays such that the final concentration of DMSO was 0.9%. All reactions were performed in polypropylene 384-well plates. Each was a final volume of 0.02 mL. Assays were incubated with shaking for 1 hour at room temperature. Then the beads were pelleted and washed with wash buffer (1×PBS, 0.05% Tween 20) to remove displaced kinase and test compound. The washed based were resuspended in elution buffer (1 λPBS, 0.05% Tween […] non-biotinylated affinity ligand) and incubated at room temperature with shaking for 30 minutes. The kinase concentration in the eluates was measured by qPCR. qPCR reactions were assembled by adding 2.5 μL of kinase eluate to 7.5 μL of qPCR master mix containing […] amplicon primers and 0.15 μM amplicon probe. The qPCR protocol consisted of a 10 minute hot start at 95° C., followed by 35 cycles of 95° C. for 15 seconds, 60° C. for 1 minute.
Test compounds were prepared as 111× stocks in 100% DMSO. Kds were determined using an 11-point 3-fold compound dilution series with three DMSO control points. All compounds for Kd measurements were distributed by acoustic transfer (non-contact dispensing) in 100% DMSO. The compounds were then diluted directly into the assays such that the final concentration of DMSO was 0.9%. The Kds were determined using a compound top concentration of 30,000 nM. Kd measurements were performed in duplicate.
Binding constants (Kds) were calculated with a standard dose-response curve using the Hill equation: […]
The Hill Slope was set to −1. […]

The target of data set [3] is TYK2 JH1 (Homo sapiens (Human), UniProt P29597). The data set can be described thus: TYK2 JH1 binding (Kd, Table 2). The note with it: JH1 domain.
Chain of TYK2 JH1 (P29597 897-1176): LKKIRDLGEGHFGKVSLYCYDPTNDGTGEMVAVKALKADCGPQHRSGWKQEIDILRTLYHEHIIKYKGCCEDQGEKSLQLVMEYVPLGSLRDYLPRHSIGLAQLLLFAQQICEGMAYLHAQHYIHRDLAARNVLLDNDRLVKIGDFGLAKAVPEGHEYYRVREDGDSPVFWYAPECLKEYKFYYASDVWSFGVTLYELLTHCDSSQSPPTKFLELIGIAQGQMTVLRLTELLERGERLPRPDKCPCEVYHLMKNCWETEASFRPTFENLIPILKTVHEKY
The target of data set [4] is JAK1 JH2 (Homo sapiens (Human), UniProt P23458). Put plainly: JAK1 JH2 binding (Kd, Table 2). The note with it: JH2 domain.
Chain of JAK1 JH2 (P23458 583-855): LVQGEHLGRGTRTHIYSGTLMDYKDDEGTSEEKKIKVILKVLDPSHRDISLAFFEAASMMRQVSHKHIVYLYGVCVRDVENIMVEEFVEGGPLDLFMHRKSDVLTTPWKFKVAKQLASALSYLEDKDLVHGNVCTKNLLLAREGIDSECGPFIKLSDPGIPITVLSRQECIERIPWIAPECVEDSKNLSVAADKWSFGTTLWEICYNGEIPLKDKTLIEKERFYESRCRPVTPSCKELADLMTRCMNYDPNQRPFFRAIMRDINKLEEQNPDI

pKd: −log10 of the molar value. Counter-ions that a name gives are not always drawn. Like-named read-outs stand apart in the source and are kept apart here. A value given as a limit tells only on which side of the number the result lay.

Chain of human TYK2 (JH2domain-pseudokinase) (P29597 556-888): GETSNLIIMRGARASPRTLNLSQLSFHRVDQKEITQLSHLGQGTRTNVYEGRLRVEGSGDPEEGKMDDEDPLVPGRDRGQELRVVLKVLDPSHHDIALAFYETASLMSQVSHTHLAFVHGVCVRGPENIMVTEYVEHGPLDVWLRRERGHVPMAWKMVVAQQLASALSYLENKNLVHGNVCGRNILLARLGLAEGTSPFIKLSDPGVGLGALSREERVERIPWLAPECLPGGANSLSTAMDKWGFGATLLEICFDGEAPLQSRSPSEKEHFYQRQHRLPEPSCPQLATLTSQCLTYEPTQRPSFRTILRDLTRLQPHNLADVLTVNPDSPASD

Consider `CNc1nc2cnc3cn2c1C(=O)N[C@H](C)COCc1cc(c2nnn(C)c2c1)N3`, for which the ring closure, isolated yield in data set [1] (from CNc1nc2cnc(Br)cn2c1C(=O)N[C@H](C)COCc1cc(N)c2nnn(C)c2c1, cn_pd bond, RuPhos Pd G3/Cs2CO3, dioxane, 62.0 mM, 100.0 °C) came out at 10%.
In turn, `C[C@@H]1COCc2cc(c3nnn(C)c3c2)Nc2cc(N(C)C(=O)OC(C)(C)C)c3ncc(n3n2)C(=O)N1` returned a ring closure, isolated yield in data set [1] (from C[C@H](COCc1cc(N)c2nnn(C)c2c1)NC(=O)c1cnc2c(N(C)C(=O)OC(C)(C)C)cc(Cl)nn12, cn_pd bond, Pd2(dba)3/BINAP/Cs2CO3, dioxane, 50.0 mM) of 50%.
`C[C@@H]1COCc2cc(c3nnn(C)c3c2)Nc2cc(N(C)C(=O)OC(C)(C)C)n3ncc(c3n2)C(=O)O1` gave a ring closure, isolated yield in data set [1] (from C[C@@H](O)COCc1cc(Nc2cc(N(C)C(=O)OC(C)(C)C)n3ncc(C(=O)O)c3n2)c2nnn(C)c2c1, ester bond, DIAD/PPh3, DCM, 20.0 mM) of 52%.
For orientation: pKd means the negative decadic logarithm of the Kd, by convention in mol/L. For `CNc1cc2nc3c(cnn13)C(=O)N[C@H](C)COCc1cc(c3cn(C)nc3c1)N2` [Compound 53], the pKd in data set [2] is above 8.00; in data set [3], 4.52 to 5.00; in data set [4] it was 6.00 to 8.00.
Consider `CNc1cc2nn3c(cnc13)C(=O)N[C@H](C)COc1ccnc3ccc(cc13)N2` [Compound 60], for which the pKd in data set [2] was above 8.00; in data set [3], 4.52 to 5.00; in data set [4], 6.00 to 8.00.
The matching figures for `CNc1cc2nn3c(cnc13)C(=O)N[C@H](C)COc1cnnc3ccc(cc13)N2` [Compound 80]: at most 4.52, at most 4.52 and at most 4.52.
The matching figures for `CNc1cc2nn3c(cnc13)C(=O)N[C@H](C)C(C)OCc1cc(c3nnn(C)c3c1)N2` (stereo partly drawn) [Compound 90]: above 8.00, at most 4.52 and 6.00 to 8.00.
The matching figures for `CNc1cc2nc3c(cnn13)C(=O)N[C@H](CO)COCc1cc(c3nnn(C)c3c1)N2` [Compound 91]: above 8.00, 6.00 to 8.00 and 5.00 to 6.00.
With `CNc1cc2nc3c(cnn13)C(=O)NC(C(F)(F)F)COCc1cc(c3nnn(C)c3c1)N2` (stereo not drawn) [Compound 92], the pKd in data set [2] was above 8.00; in data set [3] it was at most 4.52; in data set [4] it was 4.52 to 5.00.
For `CNc1cc2nc3c(cnn13)C(=O)N[C@H](C)[C@H](C)OCc1cc(c3c(c1)nnn3C)N2` [Compound 93], in that order: above 8.00, at most 4.52 and 5.00 to 6.00.
The matching figures for `CNc1cc2nc3c(cnn13)C(=O)N[C@H](C)[C@@H](C)OCc1cc(c3c(c1)nnn3C)N2` [Compound 94]: above 8.00, at most 4.52 and 4.52 to 5.00.
For `CNc1cc2nc3c(cnn13)C(=O)NC(C(F)(F)F)COCc1cc(c3c(c1)nnn3C)N2` (stereo not drawn) [Compound 95], in that order: above 8.00, at most 4.52 and at most 4.52.
For `CNc1cc2nn3c(cnc13)C(=O)N[C@H](C)COCc1cc(cc3[nH]ncc13)N2` [Compound 96, (14R)-14-methyl-21-(methylamino)-12-oxa-2,6,7,15,19,23,24-heptaazapentacyclo[15.5.2.1^(3,10.0^(5,9.0^(20,24]pentacosa-1(23),3(25),4,7,9,17,19,21-octaen-16-one hydrochloride], the pKd is above 8.00 in data set [2], 5.00 to 6.00 in data set [3] and 6.00 to 8.00 in data set [4].
The matching figures for `CNc1cc2nn3c(cnc13)C(=O)N[C@H](C)COCc1cc(cc3nc[nH]c13)N2` [Compound 97, (14R)-14-methyl-21-(methylamino)-12-oxa-2,6,8,15,19,23,24-heptaazapentacyclo[15.5.2.1^(3,10.0^(5,9.0^(20,24]pentacosa-1(23),3(25),4,6,9,17,19,21-octaen-16-one hydrochloride]: above 8.00, 5.00 to 6.00 and 6.00 to 8.00.
The matching figures for `CNc1cc2nn3c(cnc13)C(=O)N[C@H](C)COCc1cc(cc3cn[nH]c13)N2` [Compound 98]: above 8.00, 6.00 to 8.00 and 6.00 to 8.00.
The matching figures for “(R,1^3E,1^4E)-3′,7-Dimethyl-1^7-(methylamino)-3^1H-5-oxa-2,8-diaza-1(5,3)-pyrazolo[1,5-a]pyrimidina-3(7,5)-indazolacyclononaphan-9-one [Compound 13]”: above 8.00, 5.00 to 6.00 and 4.52 to 5.00.

Values taken from US20250213571A1, “TYK2 INHIBITORS AND USES THEREOF” (Alumis Inc., priority 2022, published 2025).
